According to ChEMBL document CHEMBL1121775, “Synthesis and antimalarial effects of N2-aryl-N4-[(dialkylamino)alkyl]- and N4-aryl-N2-[(dialkylamino)alkyl]-2,4-quinazolinediamines” (J Med Chem, 1981):
“And” between values parts separate entries of the source, which are not always exact repeats. Identical values can stand only once.

Legend:
[1] = test system: Plasmodium berghei; test: Antimalarial effect against trophozoite-induced Plasmodium berghei in mice (Mus musculus) after 20 mg/kg subcutaneous dose; assay type: functional
[2] = test system: Plasmodium berghei; test: Antimalarial effect against trophozoite-induced Plasmodium berghei in mice (Mus musculus) at 320 mg/kg subcutaneous dose; assay type: functional
[3] = test system: Plasmodium berghei; test: Antimalarial effect against trophozoite-induced Plasmodium berghei in mice (Mus musculus) at 160 mg/kg subcutaneous dose; assay type: functional
[4] = test system: Plasmodium berghei; test: Antimalarial effect against trophozoite-induced Plasmodium berghei in mice (Mus musculus) at 80 mg/kg subcutaneous dose; assay type: functional
[5] = test system: Plasmodium berghei; test: Antimalarial effect against trophozoite-induced Plasmodium berghei in mice (Mus musculus) after 40 mg/kg subcutaneous dose; assay type: functional
[6] = test system: Mus musculus; test: Number of mice cured at a dose of 640 mg/kg sc; assay type: functional; conditions: route subcutaneous
[7] = test system: Mus musculus; test: Number of toxic deaths at a dose of 640 mg/kg; assay type: toxicity, organism-based; design: dose 640 mg/kg; conditions: in vivo
[8] = test system: Plasmodium berghei; test: (§1) Antimalarial effect against trophozoite-induced Plasmodium berghei in mice (Mus musculus) at 640 mg/kg subcutaneous dose; assay type: functional
[9] = test system: Mus musculus; test: Number of mice cured at a subcutaneous dose of 320 mg/kg.; assay type: functional
[10] = test system: Mus musculus; test: Number of mice cured at a subcutaneous dose of 160 mg/kg.; assay type: functional
[11] = test system: Plasmodium berghei; test: Antimalarial activity against trophozoite-induced Plasmodium berghei in mice (Mus musculus) at 160 mg/kg subcutaneous dose; assay type: functional
[12] = test system: Plasmodium berghei; test: as §1; assay type: functional; remark: listed apart in the source
[13] = test system: Mus musculus; test: Number of toxic deaths at a dose of 320 mg/kg; assay type: toxicity, organism-based; design: dose 320 mg/kg; conditions: in vivo
[14] = test system: Plasmodium berghei; test: Antimalarial activity against trophozoite-induced Plasmodium berghei in mice (Mus musculus); assay type: functional
[15] = The ratio of SD90 of the quinine hydrochloride, to the SD90 of the test substance for the Dose of mg/kg; assay type: functional

Row | SMILES | MST ([3]; 160 mg/kg) | MST [3] | MST [5] | MST [1] | MST [4] | MST [12] | MST [2] | also measured
1 | CCN(CC)C1CCC(Nc2nc(Nc3cccc(Br)c3)c3ccccc3n2)CC1 (stereo not given) | 10.3 days and 10.1 days |  |  |  |  |  |  | MST ([1]; 20 mg/kg): 0.3 days and 0.5 days; MST ([2]; 320 mg/kg): 12.9 days and 12.7 days; MST ([4]; 80 mg/kg): 2.5 days and 2.7 days; MST ([5]; 40 mg/kg): 0.3 days and 0.5 days; No. of survivals ([6]; 640 mg/kg): 3 and 2
2 | c1ccc2c(NCCCN3CCCC3)nc(Nc3nccs3)nc2c1 |  | 0.3 days | 0.3 days |  |  |  |  | No. of toxic deaths [7]: 3; MST [8]: 0.9 days
3 | CCN1CCC(CNc2nc(Nc3ccc(Cl)c(Cl)c3)c3ccccc3n2)CC1 |  |  | 2.1 days |  |  |  |  | MST ([1]; 20 mg/kg): 0.5 days and 0.7 days; No. of survivals [9]: 5; No. of survivals [10]: 1; MST ([4]; 80 mg/kg): 6.7 days and 6.9 days; No. of survivals [6]: 5; MST [11]: 6.94 days
4 | CN(C)C1CCC(Nc2nc(Nc3cc(Cl)cc(Cl)c3)c3ccccc3n2)CC1 (stereo not given) |  | 2.6 days | 0 days | -0.2 days | 1.2 days |  |  | No. of survivals [6]: 5
5 | CN(C)C1CCC(Nc2nc(Nc3cccc(Br)c3)c3ccccc3n2)CC1 (stereo not given) |  | 0.7 days | -0.1 days |  |  | 0.7 days |  | 
6 | CCN(CC)CCNc1nc(Nc2ccc(C(F)(F)F)cc2)c2ccccc2n1 |  |  |  | 0.2 days | -0.2 days |  | 2.8 days | MST ([12]; 640 mg/kg): 5.3 days and 5.5 days
7 | CCN(CC)CCCC(C)Nc1nc(Nc2cc(Cl)cc(Cl)c2)c2ccccc2n1 (stereo not given) | 1.1 days and 1.2 days |  |  | 0.1 days | -0.1 days |  | 3.1 days | MST ([12]; 640 mg/kg): 4.9 days and 4.4 days
8 | CCN(CC)Cc1cc(Nc2nc(NCCN3CCCC3)c3ccccc3n2)ccc1O |  | 10.2 days | 1.7 days | 0.3 days | 2.1 days |  |  | No. of survivals [9]: 1; No. of toxic deaths [7]: 1; No. of survivals [6]: 1; No. of toxic deaths [13]: 1
9 | CCN1CCCC(Nc2nc(Nc3cc(Cl)cc(Cl)c3)c3ccccc3n2)C1 (stereo not given) | 0.4 days and 0.3 days |  |  | 0.4 days | 0.2 days |  | 2.4 days | MST ([5]; 40 mg/kg): 0.2 days and 0.1 days; MST ([12]; 640 mg/kg): 4.4 days and 6.3 days
10 | CCN1CCCC(Nc2nc(Nc3ccc(Cl)c(Cl)c3)c3ccccc3n2)C1 (stereo not given) | 0.9 days and 2.2 days |  |  | 0.9 days | 0.9 days |  | 2.9 days | MST ([12]; 640 mg/kg): 9.5 days and 10.6 days
11 | CCN1CCCC(Nc2nc(Nc3ccc(Cl)c(Cl)c3)nc3ccc([N+](=O)[O-])cc23)C1 (stereo not given) |  |  |  |  |  |  |  | SD90 [14]: 34 mg/kg/day
12 | CCN(CC)C1CCC(Nc2nc(Nc3ccc(SC)cc3)c3ccccc3n2)CC1 (stereo not given) |  | 5.7 days | 0.7 days |  |  |  | 11.7 days | MST ([1]; 20 mg/kg): 0.5 days and 0.7 days; MST ([4]; 80 mg/kg): 1.1 days and 1.3 days
13 | CN(C)C1CCC(Nc2nc(Nc3ccc(Cl)c(Cl)c3)c3ccccc3n2)CC1 (stereo not given) |  | 12.9 days |  | 0.3 days | 7.9 days |  | 9.9 days | No. of survivals [9]: 2; No. of toxic deaths [7]: 2; No. of survivals [10]: 2; MST ([5]; 40 mg/kg): 4.1 days and 3.7 days; No. of survivals [6]: 3; MST [11]: 12.6 days
14 | CCN(CC)C1CCC(Nc2nc(Nc3ccc(C(F)(F)F)cc3)c3ccccc3n2)CC1 (stereo not given) | 9.7 days and 9.5 days |  | 0.5 days |  |  |  |  | MST ([1]; 20 mg/kg): 0.5 days and 0.3 days; No. of survivals [9]: 5; MST ([4]; 80 mg/kg): 0.7 days and 0.5 days; No. of survivals ([6]; 640 mg/kg): 3 and 2
15 | CN(C)c1ccc(Nc2nc(NC3CCC(N(C)C)CC3)nc3ccccc23)cc1 (stereo not given) |  | 0.6 days | -0.2 days |  |  | 1.1 days |  | 
16 | CCN(CC)CCCC(C)Nc1nc(Nc2cc(OC)c(OC)c(OC)c2)c2ccccc2n1 (stereo not given) | 0.3 days and 0.6 days |  |  | 0.3 days | -0.3 days |  | 0.5 days | MST ([12]; 640 mg/kg): 3.5 days and 5 days
17 | CCN1CCCC(Nc2nc(Nc3ccc(C(F)(F)F)cc3)c3ccccc3n2)C1 (stereo not given) | 0.2 days and 0.3 days |  |  |  | -0.1 days |  | 0.9 days | MST ([12]; 640 mg/kg): 3.4 days and 3.1 days
18 | OC1CCCN(CCCNc2nc(Nc3cccc4nsnc34)nc3ccccc23)C1 (stereo not given) |  | 0 days | 0 days |  |  | 0 days |  | 
19 | CCN(CC)C1CCC(Nc2nc(Nc3ccc(Cl)c(Cl)c3)c3ccccc3n2)CC1 (stereo not given) |  |  | 0.5 days | 0.3 days |  |  |  | MST ([2]; 320 mg/kg): 14.4 days and 14.9 days; No. of survivals [9]: 3; No. of survivals ([10]; 160 mg/kg): 1 and 2; MST ([4]; 80 mg/kg): 2.9 days and 3.1 days; No. of survivals [6]: 5; MST ([11]; 160 mg/kg): 17.2 days and 15.6 days

Row | SMILES | MST ([3]; 160 mg/kg) | MST [3] | MST [5] | MST [1] | MST [4] | MST [12] | MST [2] | also measured
20 | CCN(CC)CCNc1nc(Nc2cc(Cl)c(Cl)cc2Cl)nc2ccccc12 |  | 0.4 days | 0.4 days |  |  | 1.2 days |  | 
21 | CCN1CCC(CNc2nc(Nc3cc(Cl)cc(Cl)c3)c3ccccc3n2)CC1 | 5.7 days and 5.9 days |  | 0.5 days |  |  |  |  | MST ([1]; 20 mg/kg): 0.5 days and 0.3 days; No. of survivals ([9]; 320 mg/kg): 3 and 2; MST ([4]; 80 mg/kg): 2.5 days and 2.7 days; No. of survivals ([6]; 640 mg/kg): 3 and 2
22 | CN1CCCC1CCNc1nc(Nc2ccc(C(F)(F)F)cc2)c2ccccc2n1 (stereo not given) | 1.5 days and 1.7 days |  | 0.3 days | 0.3 days | 0.5 days | 7.7 days |  | MST ([2]; 320 mg/kg): 4.1 days and 4.3 days
23 | CCN(CC)CCCC(C)Nc1nc(Nc2ccc(O)c(CN(CC)CC)c2)c2ccccc2n1 (stereo not given) | 3.8 days and 1.6 days |  |  | 0 days | 1.4 days | 5.6 days | 7.4 days | MST ([5]; 40 mg/kg): 0.6 days and 0.2 days; No. of survivals [6]: 3; MST [8]: 3.1 days
24 | CCN(CC)CCCNc1nc(Nc2cc(Cl)cc(Cl)c2)c2ccccc2n1 | 3 days and 2.7 days |  |  | 0.2 days | 1.4 days |  | 5 days | No. of survivals [6]: 2; MST ([8]; 640 mg/kg): 14.5 days and 15.7 days
25 | CCN(CC)CCCC(C)Nc1nc(Nc2ccc(Cl)c(Cl)c2)c2ccccc2n1 (stereo not given) |  |  |  | 0.1 days | 0.3 days |  | 1.3 days | MST ([5]; 40 mg/kg): 0.3 days and 0.4 days; MST ([12]; 640 mg/kg): 4.7 days and 5.8 days
26 | CCN1CCCC(Nc2nc(Nc3ccc(Cl)c(Cl)c3)nc3c(Cl)cc(Cl)cc23)C1 (stereo not given) |  | 0.5 days | 0.3 days | 0.3 days |  |  |  | 
27 | Clc1ccc(Nc2nc(NCCCN3CCCCC3)nc3ccccc23)cc1Cl |  |  |  | -0.2 days | -0.4 days |  | 1.6 days | MST ([12]; 640 mg/kg): 3 days and 4.1 days
28 | CN(C)C1CCC(Nc2nc(Nc3ccc(C(F)(F)F)cc3)c3ccccc3n2)CC1 (stereo not given) |  | 0.7 days | 1.1 days |  |  | 0.7 days |  | 
29 | CCN(CC)CCCNc1nc(Nc2ccc(Cl)c(Cl)c2)c2ccccc2n1 | 4.6 days and 5.2 days |  |  | 0 days | 2.8 days |  | 8.4 days | No. of survivals [6]: 1; MST ([8]; 640 mg/kg): 9.8 days and 10.5 days
30 | Clc1cc(Cl)cc(Nc2nc(NCCCN3CCCC3)nc3ccccc23)c1 |  | 0.8 days | 0.4 days |  |  | 1.2 days |  | 
31 | CCN(CC)C1CCC(Nc2nc(Nc3cc(Cl)cc(Cl)c3)c3ccccc3n2)CC1 (stereo not given) | 0.7 days and 0.5 days |  |  | 0.3 days | 0.5 days |  |  | MST ([2]; 320 mg/kg): 7.9 day and 8.1 MST; MST ([5]; 40 mg/kg): 0.5 days and 0.3 days; No. of survivals [6]: 5
32 | Clc1cc(Cl)cc(Nc2nc(NCCCN3CCCCC3)nc3ccccc23)c1 |  | 0.2 days | 0.2 days |  |  | 1.6 days |  | 
33 | FC(F)(F)c1ccc(Nc2nc(NCCCN3CCCCC3)nc3ccccc23)cc1 |  | -0.2 days | -0.2 days |  |  | 2.4 days |  | 
34 | CCN(CC)CCCNc1nc(Nc2ccc(C(F)(F)F)cc2)c2ccccc2n1 | 0.6 days and 0.3 days |  |  | 0 days | 0.8 days |  | 9.2 days | MST ([12]; 640 mg/kg): 10.1 days and 7.5 days
35 | CN1CCCC1CCNc1nc(Nc2ccc(Cl)c(Cl)c2)c2ccccc2n1 (stereo not given) | 6.9 days and 7.1 days |  | 0.5 days | 0.3 days |  |  | 11.2 days | No. of survivals [9]: 1; No. of toxic deaths [7]: 2; MST ([4]; 80 mg/kg): 0.5 days and 0.7 days; No. of survivals [6]: 1; No. of toxic deaths [13]: 1 and 2
36 | CCN(CC)CCCC(C)Nc1nc(Nc2ccc(C(F)(F)F)cc2)c2ccccc2n1 (stereo not given) |  | 0 days | -0.6 days |  |  | 1.6 days |  | 
37 | CCN1CCCC(Nc2nc(Nc3cc(Cl)cc(Cl)c3)nc3cc(Cl)ccc23)C1 (stereo not given) |  | 0.4 days | 0.2 days |  |  | 1.6 days |  | SD90 [14]: 73 mg/kg/day; Ratio [15]: 73
38 | FC(F)(F)c1cc(Nc2nc(NCCN3CCCC3)c3ccccc3n2)cc(C(F)(F)F)c1 |  | 0.2 days | 0.2 days |  |  | 1 days |  | SD90 [14]: 105 mg/kg/day; Ratio [15]: 105
